The IC50 is the concentration needed to halve the response being measured.

Assay [1] deals with A431.
Description: (§1) Quantification of cell proliferation and cell viability was determined by measuring the amount of radioactive [^3H-methyl]-thymidine incorporated into DNA.
(§2) Cell culture: For each cell line, culture was carried according to the ATCC Product Information Sheet provided. Cell lines were always freshly thawed prior to each experiment. For all experiments exponentially growing cells were harvested and centrifuged at 1100 rpm, the spent medium was aspirated and cell pellets were resuspended in fresh complete medium. Viable cells were enumerated by trypan blue exclusion using a hemacytometer.
(§3) Cells were then seeded in 96 well tissue culture plates in a total volume of 100 μL/well. A preliminary experiment should be performed to determine the most appropriate cell density for each individual cell line. Cells were allowed to attach and acclimate overnight.
(§4) Addition of test compounds: Each test compound was dissolved in DMSO at a final concentration of 2 mM. Each stock compound was then diluted in complete medium (1:100) to obtain a 20 μM working solution. The working solution was used for further serial dilutions to obtain concentrations of 200 nM, 20 nM, 2 nM, 0.2 nM and 0.02 nM. 100 μL of each dilution was added to the 100 μL cell cultures (3 replicates),. to give final test concentrations of 100 nM, 10 nM, 1 nM, 0.1 nM and 0.01 nM. Using this system of dilutions, the maximum concentration of DMSO to which the cells were exposed was 0.01% v/v. Therefore, 0.01% DMSO was added to control cells to which no test compounds was added. On each plate two positive controls were included: Adriamycin Hydrochloride and Rapamycin. For each positive control 3 concentrations were chosen in a range that achieved an LC50, this range is cell line specific and must be predetermined in a pilot experiment. Plates were incubated for 96 hours prior to harvesting. [^3H-methyl]-thymidine incorporation: After 80 hours incubation, 10 μL (0.5 μCi) of [^3H-methyl]-thymidine diluted in 1× HBSS was added and plates were incubated overnight.
(§5) Growth medium was removed from each well and 100 uL of Trypsin-EDTA was added. The plate was incubated at 37° C. until cells were trypsinized (check under microscope). The detached cells were harvested using a semiautomatic cell harvester. Filters were dried prior to addition to scintillation vials. two mL of scintillation fluid was automatically dispensed into each vial and counting was effected on program 1 (^3H, 1 min, DPM).
(§6) The average and standard error from the DPM counts of replicate samples were calculated.
In assay [2] the test system is Lncap.
Description: as §1, §2, §3, §4, §5, §6
The test system of assay [3] is LS174T.
Description: as §1, §2, §3, §4, §5, §6
The test system of assay [4] is MCF-7.
Description: as §1, §2, §3, §4, §5, §6
Assay [5] concerns OVCAR-3.
Description: as §1, §2, §3, §4, §5, §6
Assay [6] concerns SKMEL-2.
Description: as §1, §2, §3, §4, §5, §6
For assay [7], the system named is SK-N-SH.
Description: as §1, §2, §3, §4, §5, §6
Assay [8] has as its system SKOV-3.
Description: as §1, §2, §3, §4, §5, §6
Assay [9] deals with D341.
Description: as §1, §2, §3, §4, §5, §6
Setting [10] is: read-out: Inhibition of H^3 Thymidine uptake (IC50 in nM), A431 cells, 96 hours incubation.
Where [11] appears, read: read-out: Inhibition of H^3 Thymidine uptake (IC50 in nM), Lncap cells, 96 hours incubation.
Setting [12] is: read-out: Inhibition of H^3 Thymidine uptake (IC50 in nM), LS174T cells, 96 hours incubation.
Setting [13] is: read-out: Inhibition of H^3 Thymidine uptake (IC50 in nM), MCF-7 cells, 96 hours incubation.
Where [14] appears, read: read-out: Inhibition of H^3 Thymidine uptake (IC50 in nM), OVCAR-3 cells, 96 hours incubation.
[15] abbreviates: read-out: Inhibition of H^3 Thymidine uptake (IC50 in nM), SKMEL-2 cells, 96 hours incubation.
[16] abbreviates: read-out: Inhibition of H^3 Thymidine uptake (IC50 in nM), SK-N-SH cells, 96 hours incubation.
Where [17] appears, read: read-out: Inhibition of H^3 Thymidine uptake (IC50 in nM), SKOV-3 cells, 96 hours incubation.
Where [18] appears, read: read-out: Inhibition of H^3 Thymidine uptake (IC50 in nM), D341 cells, 96 hours incubation.

Like-named read-outs stand apart in the source and are kept apart here.

Take `CO[C@H]1C[C@@H]2CC[C@@H](C)[C@@](O)(O2)C(=O)C(=O)N2CCCC[C@H]2C(=O)O[C@H]([C@H](C)C[C@@H]2CC[C@@H](OC(=O)NC(CO)(CO)CO)[C@H](OC)C2)CC(=O)[C@H](C)/C=C(\C)[C@@H](O)[C@@H](OC)C(=O)[C@H](C)C[C@H](C)/C=C/C=C/C=C/1C` [Compound 7u, Rapamycin-42-O-ester-Tris(hydroxymethyl)amino methane]: the IC50 in assay [1] (setting [10]) was found to be 282 nM; in [2] (setting [11]), 14 nM; in assay [3] (setting [12]), 1590 nM; in assay [4] (setting [13]), 1.54 nM; in [5] (setting [14]), 56.6 nM; in assay [6] (setting [15]), 6.15 nM. For the same compound, the half-maximal inhibitory concentration (IC50) in assay [7] (setting [16]) was determined as 6.4 nM; in assay [8] (setting [17]) it was 8.08 nM; in assay [9] (setting [18]) it was 20.8 nM.
With `CO[C@H]1C[C@@H]2CC[C@@H](C)[C@@](O)(O2)C(=O)C(=O)N2CCCC[C@H]2C(=O)O[C@H]([C@H](C)C[C@@H]2CC[C@@H](OC(=O)N[C@H](CO)[C@@H](C)O)[C@H](OC)C2)CC(=O)[C@H](C)/C=C(\C)[C@@H](O)[C@@H](OC)C(=O)[C@H](C)C[C@H](C)/C=C/C=C/C=C/1C` [Compound 7r, Rapamycin-42-O-ester-(2R,3R)-2-amino-1,3-butanediol], the IC50 in assay [1] (setting [10]) was 191 nM; in [2] (setting [11]) it was 21.8 nM; in [3] (setting [12]) it was 1410 nM; in assay [4] (setting [13]), 1.86 nM; in [5] (setting [14]) it was 47.2 nM; in assay [6] (setting [15]) it was 8.32 nM. For the same compound, the IC50 amounted to 4.84 nM in assay [7] (setting [16]), 6.44 nM in assay [8] (setting [17]) and 5.5 nM in assay [9] (setting [18]).
`CO[C@H]1C[C@@H]2CC[C@@H](C)[C@@](O)(O2)C(=O)C(=O)N2CCCC[C@H]2C(=O)O[C@H]([C@H](C)C[C@@H]2CC[C@@H](OC(=O)NC(C)(CO)CO)[C@H](OC)C2)CC(=O)[C@H](C)/C=C(\C)[C@@H](O)[C@@H](OC)C(=O)[C@H](C)C[C@H](C)/C=C/C=C/C=C/1C` [Compound 7p, Rapamycin-42-O-ester-2-amino-2-methyl-1,3-propanediol]: the IC50 in assay [1] (setting [10]) was found to be 254 nM; in assay [2] (setting [11]), 7.12 nM; in [3] (setting [12]), 2310 nM; in [4] (setting [13]) it was 1.17 nM; in assay [5] (setting [14]), 79.3 nM; in assay [6] (setting [15]), 17.7 nM. Moreover, the IC50 turned out to be 7.19 nM in [7] (setting [16]), 8.8 nM in assay [8] (setting [17]) and 10.2 nM in assay [9] (setting [18]).
With “Rapamycin-42-O-ester-(R) (+)-2-amino-3-phenyl-1-propanol [Compound 7k]”, the IC50 stood at 550 nM in [1] (setting [10]); 146 nM in assay [2] (setting [11]); 1380 nM in assay [3] (setting [12]); 15.9 nM in assay [4] (setting [13]); 296 nM in [5] (setting [14]); 109 nM in [6] (setting [15]). In addition, the IC50 in [7] (setting [16]) stood at 71.3 nM; in [8] (setting [17]), 66 nM; in assay [9] (setting [18]) it was 259 nM.
In the case of `CC[C@H](C)[C@H](NC(=O)[C@H](CC(C)C)NC(=O)O[C@@H]1CC[C@@H](C[C@@H](C)[C@@H]2CC(=O)[C@H](C)/C=C(\C)[C@@H](O)[C@@H](OC)C(=O)[C@H](C)C[C@H](C)/C=C/C=C/C=C(\C)[C@@H](OC)C[C@@H]3CC[C@@H](C)[C@@](O)(O3)C(=O)C(=O)N3CCCC[C@H]3C(=O)O2)C[C@H]1OC)C(=O)N[C@@H](CO)Cc1ccccc1` [Compound 7c, Rapamycin-42-O-ester-(NH-L-Leu-L-Ile-D-Phe-CH2OH)], the IC50 in [1] (96 h) is 286 nM; in assay [2] (96 h), 212 nM; in [3] (96 h) it was 1700 nM; in assay [4] (96 h), 32.3 nM; in assay [5] (96 h), 260 nM; in assay [6] (96 h), 87.4 nM. The IC50 in [7] (96 h) came out at 111 nM; in [8] (96 h), 72.1 nM; in [9] (96 h), 114 nM.
For `CC[C@H](C)[C@H](NC(=O)[C@H](CC(C)C)NC(=O)[C@H](C)NC(=O)[C@H](Cc1cn(C(c2ccccc2)(c2ccccc2)c2ccccc2)cn1)NC(=O)O[C@@H]1CC[C@@H](C[C@@H](C)[C@@H]2CC(=O)[C@H](C)/C=C(\C)[C@@H](O)[C@@H](OC)C(=O)[C@H](C)C[C@H](C)/C=C/C=C/C=C(\C)[C@@H](OC)C[C@@H]3CC[C@@H](C)[C@@](O)(O3)C(=O)C(=O)N3CCCC[C@H]3C(=O)O2)C[C@H]1OC)C(=O)N[C@@H](CO)Cc1ccccc1` [Compound 7h], the IC50 in assay [1] (96 h) was 2370 nM; in assay [2] (96 h), 374 nM; in [3] (96 h), 777 nM; in assay [4] (96 h) it was 85.5 nM; in assay [5] (96 h), 375 nM; in assay [6] (96 h), 416 nM. Further, the IC50 in assay [7] (96 h) worked out at 223 nM; in assay [8] (96 h) it was 155 nM; in assay [9] (96 h), 405 nM.
For the compound `CO[C@H]1C[C@@H]2CC[C@@H](C)[C@@](O)(O2)C(=O)C(=O)N2CCCC[C@H]2C(=O)O[C@H]([C@H](C)C[C@@H]2CC[C@@H](OC(=O)N[C@@H](CO)[C@H](C)O)[C@H](OC)C2)CC(=O)[C@H](C)/C=C(\C)[C@@H](O)[C@@H](OC)C(=O)[C@H](C)C[C@H](C)/C=C/C=C/C=C/1C` [Compound 7q, Rapamycin-42-O-ester-(2S,3S)-2-amino-1,3-butanediol], the IC50 in assay [1] (setting [10]) amounted to 313 nM; in assay [2] (setting [11]) it was 17.4 nM; in [3] (setting [12]), 1630 nM; in assay [4] (setting [13]), 1.29 nM; in assay [5] (setting [14]), 56.5 nM; in assay [6] (setting [15]) it was 9.15 nM. Further, the 50% inhibitory concentration (IC50) in [7] (setting [16]) came to 5.25 nM; in assay [8] (setting [17]) it was 6.35 nM; in [9] (setting [18]), 25.2 nM.
Turning to `CO[C@H]1C[C@@H]2CC[C@@H](C)[C@@](O)(O2)C(=O)C(=O)N2CCCC[C@H]2C(=O)O[C@H]([C@H](C)C[C@@H]2CC[C@@H](OC(=O)NCC(O)CO)[C@H](OC)C2)CC(=O)[C@H](C)/C=C(\C)[C@@H](O)[C@@H](OC)C(=O)[C@H](C)C[C@H](C)/C=C/C=C/C=C/1C` (stereo partly drawn) [Compound 7n, Rapamycin-42-O-ester-3-amino-1,2-propanediol], the IC50 came out at 314 nM in assay [1] (setting [10]); 42.7 nM in assay [2] (setting [11]); 55100 nM in [3] (setting [12]); 2.53 nM in [4] (setting [13]); 71.9 nM in assay [5] (setting [14]); 11.7 nM in [6] (setting [15]). Moreover, the IC50 in [7] (setting [16]) worked out at 7.27 nM; in assay [8] (setting [17]), 7.96 nM; in assay [9] (setting [18]), 14.7 nM.
As for `CC[C@H](C)[C@H](NC(=O)O[C@@H]1CC[C@@H](C[C@@H](C)[C@@H]2CC(=O)[C@H](C)/C=C(\C)[C@@H](O)[C@@H](OC)C(=O)[C@H](C)C[C@H](C)/C=C/C=C/C=C(\C)[C@@H](OC)C[C@@H]3CC[C@@H](C)[C@@](O)(O3)C(=O)C(=O)N3CCCC[C@H]3C(=O)O2)C[C@H]1OC)C(=O)N[C@@H](CO)Cc1ccccc1` [Compound 7a, Rapamycin-42-O-ester-(NH-L-Ile-D-Phe-CH2OH)], the half-inhibitory concentration (IC50) in assay [1] (96 h) worked out at 608 nM; in [2] (96 h), 154 nM; in assay [3] (96 h), 626 nM; in assay [4] (96 h), 29.6 nM; in assay [5] (96 h), 416 nM; in assay [6] (96 h), 78.1 nM. Further, the figures for the IC50 in assay [7] (96 h), in assay [8] (96 h) and in assay [9] (96 h) were 86.9 nM, 80 nM and 138 nM, respectively.
With `CC[C@H](C)[C@H](NC(=O)O[C@@H]1CC[C@@H](C[C@@H](C)[C@@H]2CC(=O)[C@H](C)/C=C(\C)[C@@H](O)[C@@H](OC)C(=O)[C@H](C)C[C@H](C)/C=C/C=C/C=C(\C)[C@@H](OC)C[C@@H]3CC[C@@H](C)[C@@](O)(O3)C(=O)C(=O)N3CCCC[C@H]3C(=O)O2)C[C@H]1OC)C(=O)N[C@H](CO)Cc1ccccc1` [Compound 7b, Rapamycin-42-O-ester-(NH-L-Ile-S-Phe-CH2OH)], the IC50 in assay [1] (96 h) stood at 1840 nM; in assay [2] (96 h) it was 309 nM; in [3] (96 h), 1480 nM; in assay [4] (96 h) it was 53.3 nM; in assay [5] (96 h), 424 nM; in [6] (96 h) it was 326 nM. Also, the IC50 in assay [7] (96 h) was 144 nM; in assay [8] (96 h) it was 136 nM; in [9] (96 h) it was 182 nM.

These data come from US7659244B2, “Rapamycin peptides conjugates: synthesis and uses thereof” (Quest Pharmatech, Inc., priority 2004, dated 2010).
